According to patent US11815448B2, “Method, reagent, and chip for measuring analyte concentration in specimen” (TERUMO KABUSHIKI KAISHA, priority 2018, dated 2023):
Structures can show the parent of a compound that is named as a salt.

Test: Evaluation of maximum absorption wavelength (λmax)
Assay type: physicochemical
Protocol: A 10 mM MOPS aqueous solution is added so that the final concentrations of the respective formazan compounds are 50 to […] to prepare 100 μL of each sample. Separately, a 1M nickel ion aqueous solution is prepared. To 100 μL of the sample, 10 μL of the 1M nickel ion aqueous solution is added, and the mixture is rapidly stirred to prepare a mixed solution. The spectrum of the mixed solution is measured with a spectrophotometer (measurement cell length: 10 mm) (n=1). Based on each spectrum, the maximum absorption wavelength (λmax) (nm) of each compound in formazan is determined.
Diethyl ether was added to the reaction solution obtained in 3. above to precipitate the tetrazolium compound 1. The precipitate was centrifuged, and the supernatant was removed, followed by washing with diethyl ether. The obtained precipitate was dried in a draft to obtain tetrazolium compound 1 (120 mg, yield: 11.8% by mass). The maximum absorption wavelength (λmax) of the tetrazolium compound 1 thus obtained was measured and found to be 630 nm.

COc1ccc2nc(-n3nc(-c4ccc(S(=O)(=O)O)cc4S(=O)(=O)[O-])n[n+]3-c3ccc(OC)c(S(=O)(=O)O)c3)sc2c1 [tetrazolium compound 1, 2-(6-methoxybenzothiazolyl)-3-(3-sulfo-4-methoxy-phenyl)-5-(2,4-disulfophenyl)-2H-tetrazolium salt]
maximum absorption wavelength (λmax): 630 nm
